In patent US20240217978A1 (CHONG KUN DANG PHARMACEUTICAL CORP., priority 2021, published 2024):
pIC50: −log10 of the molar value.

Molecular target: human adenosine A2a receptor (Homo sapiens (Human), UniProt P29274)
Test: A2a receptor binding affinity, [3H]-NECA radioligand binding test
Conditions: [3H]-NECA 37 nM; membrane from HEK-293 cells transfected with human adenosine A2a receptor
In short: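 IC50 values (μM) come from displacement of [3H]-NECA, used at 37 nM final, on human A2a receptor membranes from transfected HEK-293 cells. Incubation lasted one hour at room temperature in Tris/MgCl2/EDTA buffer, pH 7.4; filter-bound radioactivity was counted by scintillation.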

human adenosine A2a receptor, sequence (P29274 whole entry): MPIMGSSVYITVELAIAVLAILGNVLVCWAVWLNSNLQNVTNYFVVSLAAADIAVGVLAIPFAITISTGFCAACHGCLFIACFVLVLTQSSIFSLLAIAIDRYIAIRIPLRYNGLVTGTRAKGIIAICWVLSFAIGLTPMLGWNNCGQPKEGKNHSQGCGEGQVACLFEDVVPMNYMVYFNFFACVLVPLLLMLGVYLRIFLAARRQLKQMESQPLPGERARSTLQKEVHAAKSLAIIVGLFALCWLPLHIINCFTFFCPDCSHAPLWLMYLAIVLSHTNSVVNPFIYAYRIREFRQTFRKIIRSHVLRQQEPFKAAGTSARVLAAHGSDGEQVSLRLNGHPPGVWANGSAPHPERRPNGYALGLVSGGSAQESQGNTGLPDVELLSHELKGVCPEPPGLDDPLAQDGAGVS

Row | Structure (SMILES) | pIC50
1 | CCCN1CCN(C(=O)[C@@H]2CCCN2c2nc(N)n3nc(-c4ccco4)nc3n2)CC1 [Example 135, (S)-(1-(7-amino-2-(furan-2-yl)-[1,2,4]triazolo[1,5-a][1,3,5]triazin-5-yl)pyrrolidin-2-yl)(4-propylpiperazin-1-yl)methanone] | 7.62
2 | CC(c1ccccc1)N1CCN(C(=O)[C@@H]2CCCN2c2nc(N)n3nc(-c4ccco4)nc3n2)CC1 (some centres unmarked) [Example 66] | 8.15
3 | C[C@H](Nc1nc(N)n2nc(-c3ccco3)nc2n1)C(=O)N1CCC2(CC1)CN(Cc1ccc(F)cc1F)C2 [Example 31, (S)-2-((7-amino-2-(furan-2-yl)-[1,2,4]triazolo[1,5-a][1,3,5]triazin-5-yl)amino)-1-(2-(2,4-difluorobenzyl)-2,7-diazaspiro[3.5]nonan-7-yl)propan-1-one] | 9.00
4 | COCCN1CCN(C(=O)[C@@H](Nc2nc(N)n3nc(-c4ccco4)nc3n2)C2CCCCC2)CC1 [Example 188, (S)-2-((7-amino-2-(furan-2-yl)-[1,2,4]triazolo[1,5-a][1,3,5]triazin-5-yl)amino)-2-cyclohexyl-1-(4-(2-methoxyethyl)piperazin-1-yl)ethan-1-one] | 8.00
5 | Nc1nc(N2CCCC[C@H]2C(=O)N2CCN(Cc3ccc(F)cc3F)CC2)nc2nc(-c3ccco3)nn12 [Example 29, (S)-(1-(7-amino-2-(furan-2-yl)-[1,2,4]triazolo[1,5-a][1,3,5]triazin-5-yl)piperidin-2-yl)(4-(2,4-difluorobenzyl)piperazin-1-yl)methanone] | 8.10
6 | CN1CCN(C(=O)[C@@H]2CCCN2c2nc(N)n3nc(-c4ccco4)nc3n2)CC1 [Example 134, (S)-(1-(7-amino-2-(furan-2-yl)-[1,2,4]triazolo[1,5-a][1,3,5]triazin-5-yl)pyrrolidin-2-yl)(4-methylpiperazin-1-yl)methanone] | 7.07
7 | Nc1nc(N2CCC[C@H]2C(=O)N2CCN(C(=O)C3(C(F)(F)F)CC3)CC2)nc2nc(-c3ccco3)nn12 [Example 74] | 7.89
8 | CC(C)OCCN1CCN(C(=O)[C@@H]2CCCN2c2nc(N)n3nc(-c4ccco4)nc3n2)CC1 [Example 140, (S)-(1-(7-amino-2-(furan-2-yl)-[1,2,4]triazolo[1,5-a][1,3,5]triazin-5-yl)pyrrolidin-2-yl)(4-(2-isopropoxyethyl)piperazin-1-yl)methanone] | 8.00
9 | Nc1nc(N2CCC[C@H]2C(=O)N2CCN(c3ncccn3)CC2)nc2nc(-c3ccco3)nn12 [Example 127, (S)-(1-(7-amino-2-(furan-2-yl)-[1,2,4]triazolo[1,5-a][1,3,5]triazin-5-yl)pyrrolidin-2-yl)(4-(pyrimidin-2-yl)piperazin-1-yl)methanone] | 8.52
10 | Nc1nc(N2CCC[C@H]2C(=O)N2CCN(c3ccccc3C(F)(F)F)CC2)nc2nc(-c3ccco3)nn12 [Example 150, (S)-(1-(7-amino-2-(furan-2-yl)-[1,2,4]triazolo[1,5-a][1,3,5]triazin-5-yl)pyrrolidin-2-yl)(4-(2-(trifluoromethyl)phenyl)piperazin-1-yl)methanone] | 10.00
11 | Cc1ccc(-c2nc3nc(N4CCC[C@H]4C(=O)N4CCN(c5ccccc5)CC4)nc(N)n3n2)o1 [Example 199, (S)-(1-(7-amino-2-(5-methylfuran-2-yl)-[1,2,4]triazolo[1,5-a][1,3,5]triazin-5-yl)pyrrolidin-2-yl)(4-phenylpiperazin-1-yl)methanone] | 8.70
12 | Cc1ccc(-c2nc3nc(N4CCC[C@H]4C(=O)N4CCN(c5ccc(F)cc5F)CC4)nc(N)n3n2)o1 [Example 87, (S)-(1-(7-amino-2-(5-methylfuran-2-yl)-[1,2,4]triazolo[1,5-a][1,3,5]triazin-5-yl)pyrrolidin-2-yl)(4-(2,4-difluorophenyl)piperazin-1-yl)methanone] | 9.00
13 | CCCC[C@H](Nc1nc(N)n2nc(-c3ccco3)nc2n1)C(=O)N1CCN(c2ccc(F)cc2F)CC1 [Example 164, (S)-2-((7-amino-2-(furan-2-yl)-[1,2,4]triazolo[1,5-a][1,3,5]triazin-5-yl)amino)-1-(4-(2,4-difluorophenyl)piperazin-1-yl)hexan-1-one] | 9.52
14 | Nc1nc(N2CCC[C@H]2C(=O)N2CCC(C3CCN(CCCC(F)(F)F)CC3)CC2)nc2nc(-c3ccco3)nn12 [Example 291, (S)-(1-(7-amino-2-(furan-2-yl)-[1,2,4]triazolo[1,5-a][1,3,5]triazin-5-yl)pyrrolidin-2-yl)(1′-(4,4,4-trifluorobutyl)-[4,4′-bipiperidin]-1-yl)methanone] | 8.30
15 | Nc1nc(N[C@@H](CN2CCOCC2)C(=O)N2CCN(c3ccc(F)cc3F)CC2)nc2nc(-c3ccco3)nn12 [Example 273] | 7.70
16 | Nc1nc(N2CCC[C@H]2C(=O)N2CC3CCC(C2)N3C(=O)c2ccccc2)nc2nc(-c3ccco3)nn12 [Example 157, (3-((7-amino-2-(furan-2-yl)-[1,2,4]triazolo[1,5-a][1,3,5]triazin-5-yl)-L-prolyl)-3,8-diazabicyclo[3.2.1]octan-8-yl)(phenyl)methanone] | 8.22
17 | C[C@H](Nc1cc2nc(-c3ccco3)nn2c(N)n1)C(=O)N1CCN(CC(C)(C)F)CC1 [Example 375, (S)-2-((5-amino-2-(furan-2-yl)-[1,2,4]triazolo[1,5-c]pyrimidin-7-yl)amino)-1-(4-(2-fluoro-2-methylpropyl)piperazin-1-yl)propan-1-one] | 8.10
18 | Nc1nc(N2CCC[C@H]2C(=O)N2CCN(CC3CCC(C(F)(F)F)CC3)CC2)nc2nc(-c3ccco3)nn12 (stereo partly drawn) [Example 330, (S)-(1-(7-amino-2-(furan-2-yl)-[1,2,4]triazolo[1,5-a][1,3,5]triazin-5-yl)pyrrolidin-2-yl)(4-((4-(trifluoromethyl)cyclohexyl)methyl)piperazin-1-yl)methanone] | 7.96
19 | C[C@H]1CN(C(=O)Nc2ccccc2)CCN1C(=O)[C@@H]1CCCN1c1nc(N)n2nc(-c3ccco3)nc2n1 [Example 181, (S)-4-((7-amino-2-(furan-2-yl)-[1,2,4]triazolo [1,5-a][1,3,5]triazine-5-yl)-L-prolyl)-3-methyl-N-phenylpiperazin-1-carboxamide] | 7.96
20 | Nc1nc(N[C@H](C(=O)N2CCN(CC(F)F)CC2)C2CC2)nc2nc(-c3ccco3)nn12 [Example 354, (S)-2-((7-amino-2-(furan-2-yl)-[1,2,4]triazolo[1,5-a][1,3,5]triazin-5-yl)amino)-2-cyclopropyl-1-(4-(2,2-difluoroethyl)piperazin-1-yl)ethan-1-one] | 7.66
21 | Nc1nc(N2CCC[C@H]2C(=O)N2CCN(C(=O)C3CCC(O)CC3)CC2)nc2nc(-c3ccco3)nn12 (some centres unmarked) [Example 230] | 8.22
22 | COCCN1CCN(C(=O)[C@@H]2CCN2c2nc(N)n3nc(-c4ccc(C)o4)nc3n2)CC1 [Example 221, (S)-(1-(7-amino-2-(5-methylfuran-2-yl)-[1,2,4]triazolo[1,5-a][1,3,5]triazin-5-yl)azetidin-2-yl)(4-(2-methoxyethyl)piperazin-1-yl) methanone] | 8.00
23 | Nc1nc(N2CCC[C@H]2C(=O)N2CCN(Cc3ccccc3)CC2)nc2nc(-c3ccco3)nn12 [Example 27, (S)-(1-(7-amino-2-(furan-2-yl)-[1,2,4]triazolo[1,5-a][1,3,5]triazin-5-yl)pyrrolidin-2-yl)(4-benzylpiperazin-1-yl)methanone] | 8.15
